# In patent publication US20220089663A1, “PROTEINS AND FLUOROPHORE-CONTAINING COMPOUNDS SELECTIVE FOR NaV1.7” (MEMORIAL SLOAN KETTERING CANCER CENTER, priority 2019, published 2022):
# Tests used:
# hNav1.1 = target: T1, hNav1.1 (Homo sapiens, UniProt P35498); experiment: automated whole-cell patch clamp (QPatch 16X), HEK293-hNav1.1; format: cell-based; conditions: HEK293 cells stably expressing human channel; read-out: IC50 Nav1.1
# T1 construct: host or cells: HEK293
# hNav1.2 = target: T2, hNav1.2 (Homo sapiens, UniProt Q99250); experiment: automated whole-cell patch clamp (QPatch 16X), HEK293-hNav1.2; format: cell-based; conditions: HEK293 cells stably expressing human channel; read-out: IC50 Nav1.2
# T2 construct: host or cells: HEK293
# hNav1.3 = target: T3, hNav1.3 (Homo sapiens, UniProt Q9NY46); experiment: automated whole-cell patch clamp (QPatch 16X), HEK293-hNav1.3; format: cell-based; conditions: HEK293 cells stably expressing human channel; read-out: IC50 Nav1.3
# T3 construct: host or cells: HEK293
# hNav1.4 = target: T4, hNav1.4 (Homo sapiens, UniProt P35499); experiment: automated whole-cell patch clamp (QPatch 16X), HEK293-hNav1.4; format: cell-based; conditions: HEK293 cells stably expressing human channel; read-out: IC50 Nav1.4
# T4 construct: host or cells: HEK293
# hNav1.5 = target: T5, hNav1.5 (Homo sapiens, UniProt Q14524); experiment: automated whole-cell patch clamp (QPatch 16X), HEK293-hNav1.5; format: cell-based; conditions: HEK293 cells stably expressing human channel; read-out: IC50 Nav1.5
# T5 construct: host or cells: HEK293
# T5 sequence (Q14524 whole entry): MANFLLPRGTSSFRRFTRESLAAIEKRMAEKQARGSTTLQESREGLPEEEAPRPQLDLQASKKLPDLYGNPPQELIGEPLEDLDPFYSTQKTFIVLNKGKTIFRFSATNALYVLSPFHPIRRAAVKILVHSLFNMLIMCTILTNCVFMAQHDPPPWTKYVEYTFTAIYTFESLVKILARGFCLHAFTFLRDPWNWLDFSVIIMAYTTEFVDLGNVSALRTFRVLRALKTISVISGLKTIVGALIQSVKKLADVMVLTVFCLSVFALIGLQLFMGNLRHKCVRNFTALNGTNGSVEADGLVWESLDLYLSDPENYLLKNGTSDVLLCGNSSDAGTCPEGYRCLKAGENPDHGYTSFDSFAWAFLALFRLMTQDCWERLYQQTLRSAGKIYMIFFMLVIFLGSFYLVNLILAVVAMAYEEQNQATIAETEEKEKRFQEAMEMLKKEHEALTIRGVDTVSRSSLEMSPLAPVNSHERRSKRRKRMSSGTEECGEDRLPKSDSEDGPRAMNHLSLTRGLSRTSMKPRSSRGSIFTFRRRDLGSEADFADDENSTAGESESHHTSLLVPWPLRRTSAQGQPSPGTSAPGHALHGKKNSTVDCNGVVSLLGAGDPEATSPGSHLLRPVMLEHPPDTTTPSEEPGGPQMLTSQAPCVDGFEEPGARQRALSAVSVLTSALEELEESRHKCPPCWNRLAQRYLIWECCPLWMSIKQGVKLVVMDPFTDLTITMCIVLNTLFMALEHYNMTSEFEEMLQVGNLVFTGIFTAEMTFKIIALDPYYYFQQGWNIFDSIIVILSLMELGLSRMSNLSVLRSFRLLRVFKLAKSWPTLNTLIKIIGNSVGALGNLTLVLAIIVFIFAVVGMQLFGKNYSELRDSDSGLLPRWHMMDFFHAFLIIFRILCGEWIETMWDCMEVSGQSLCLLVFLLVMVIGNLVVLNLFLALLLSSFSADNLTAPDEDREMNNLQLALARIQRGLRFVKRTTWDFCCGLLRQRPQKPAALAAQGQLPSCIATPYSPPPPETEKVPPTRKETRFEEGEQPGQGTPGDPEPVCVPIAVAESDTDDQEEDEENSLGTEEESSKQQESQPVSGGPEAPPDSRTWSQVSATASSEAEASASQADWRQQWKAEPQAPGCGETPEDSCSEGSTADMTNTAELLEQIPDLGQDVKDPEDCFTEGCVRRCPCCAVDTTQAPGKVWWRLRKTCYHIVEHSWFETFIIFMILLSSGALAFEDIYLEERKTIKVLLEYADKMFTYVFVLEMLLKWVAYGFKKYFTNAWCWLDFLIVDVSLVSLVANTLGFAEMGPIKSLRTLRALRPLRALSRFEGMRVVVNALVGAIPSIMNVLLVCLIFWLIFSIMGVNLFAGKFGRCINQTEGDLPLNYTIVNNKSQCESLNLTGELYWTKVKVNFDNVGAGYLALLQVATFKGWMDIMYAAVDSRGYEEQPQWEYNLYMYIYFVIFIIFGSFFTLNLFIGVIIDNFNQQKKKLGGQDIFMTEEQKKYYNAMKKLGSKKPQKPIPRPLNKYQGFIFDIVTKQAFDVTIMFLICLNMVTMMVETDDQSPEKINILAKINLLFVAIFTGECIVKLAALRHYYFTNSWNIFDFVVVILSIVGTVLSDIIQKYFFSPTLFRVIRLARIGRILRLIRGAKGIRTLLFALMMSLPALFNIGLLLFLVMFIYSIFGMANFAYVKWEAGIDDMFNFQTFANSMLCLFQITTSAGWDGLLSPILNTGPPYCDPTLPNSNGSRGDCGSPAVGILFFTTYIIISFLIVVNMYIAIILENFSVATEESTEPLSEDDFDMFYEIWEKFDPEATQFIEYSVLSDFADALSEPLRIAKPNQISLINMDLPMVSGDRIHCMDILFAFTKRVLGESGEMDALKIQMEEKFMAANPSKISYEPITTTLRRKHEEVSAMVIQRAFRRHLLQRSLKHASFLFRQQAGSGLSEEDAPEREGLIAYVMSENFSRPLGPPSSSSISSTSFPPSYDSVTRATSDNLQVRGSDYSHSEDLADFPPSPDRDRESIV
# hNav1.6 = target: T6, hNav1.6 (Homo sapiens, UniProt Q9UQD0); experiment: automated whole-cell patch clamp (QPatch 16X), HEK293-hNav1.6; format: cell-based; conditions: HEK293 cells stably expressing human channel; read-out: IC50 Nav1.6
# T6 construct: host or cells: HEK293
# hNav1.7 = target: T7, hNav1.7 (Homo sapiens, UniProt Q15858); experiment: automated whole-cell patch clamp (QPatch 16X), HEK293-hNav1.7; format: cell-based; conditions: HEK293 cells stably expressing human channel; read-out: IC50 Nav1.7
# T7 construct: host or cells: HEK293
# mouse sciatic nerves [1] = experiment: epifluorescence imaging (IVIS Spectrum) of sciatic nerves and organs 30 min after injection; format: in vivo; conditions: 30 min
# Description: Animal Model. Female athymic nude mice (4-8 week-old, athymic-Nude (outbred) (Stock #: 088; Envigo, USA) were allowed to acclimatize at the Memorial Sloan Kettering Cancer Center (MSK) vivarium for 1 week with ad libitum food and water prior to the experimental procedure. For imaging experiments, animals were sacrificed 30 min post-tail vein injection of Hs1a-FL, Hs1a/Hs1a-FL, Hsp1a-FL, Hsp1a/Hsp1a-FL, or PBS. All animal experiments were performed in accordance with institutional guidelines and approved by the IACUC of MSK, following NIH guidelines for animal welfare.
# Epifluorescence Imaging. Animals were intravenously injected with Hsp1a-FL (7 nmol, 68 μM of Hsp1a-FL in 100 μL of PBS, n=9), or Hs1a-FL (4 nmol, 45 μM of Hs1a-FL in 100 μL of PBS, n=3). To assess the specificity of the Hsp1a-FL or Hs1a-FL accumulation, animals were injected with a combination of Hsp1a and Hsp1a-FL (Hsp1a-FL, 68 μM, 7 nmol and Hsp1a 204 μM, 21 nmol in 100 μL PBS, n=9), Hs1a and Hs1a-FL (Hs1a-FL, 45 μM, 4 nmol and Hs1a, 120 μM, 12 nmol in 100 μL PBS, n=3) or PBS (n=9). Animals were sacrificed 30 min post-injection and epifluorescence images obtained. Epifluorescence images of the right sciatic nerve (RSN) and the left sciatic nerve (LSN) were obtained in situ. Epifluorescence of the biodistribution of the peptides in excited RSN, LSN, muscle, heart, kidney, liver, and brain were acquired with IVIS Spectrum (PerkinElmer) using a predefined GFP filterset (e.g., excitation=465/30 nm, emission=520-580 nm) based on the particular fluorophore employed in the compounds. Autofluorescence was removed through spectral unmixing. Semiquantitative analysis of the Hsp1a-FL or Hs1a-FL signal was conducted by measuring the average radiant efficiency (in units of unit [p/s/cm^2/sr]/[μW/cm^2]) in regions of interest (ROIs) that were placed on all resected organs under white light guidance.
# mouse sciatic nerves [2] = experiment: confocal microscopy / histology of sciatic nerve sections after injection; format: in vivo; conditions: 30 min
# Description: Confocal Microscopy. 5 or 10 μm cryosections of OCT-embedded sciatic nerve tissues from mice intravenously injected with Hsp1a-FL (7 nmol, 68 μM of Hsp1a-FL in 100 μL of PBS), Hsp1a/Hsp1a-FL (Hsp1a-FL, 68 μM, 7 nmol, and Hsp1a 204 μM, 21 nmol in 100 μL PBS), Hs1a-FL (4 nmol, 45 μM of Hs1a-FL in 100 μL of PBS), with the block Hs1a/Hs1a-FL (Hs1a-FL, 45 μM, 4 nmol and Hs1a 120 μM, 12 nmol in 100 μL PBS) or PBS were used to determine the distribution and localization of fluorescently-tagged peptide. Animal organs were incubated with Hoechst 33342 (blue, 20 μM, 1 nmol in 50 μL of PBS) to counterstain nuclei before embedding in Mowiol mounting medium. Fresh tissue samples were counterstained with 33342 (blue, 20 μM, 1 nmol in 50 μL of PBS) up to 90 min post-mortem and placed directly on a microscope slide for imaging.
# hERG = hERG (Homo sapiens, UniProt Q12809); experiment: Hs1a off-target voltage-gated potassium channel, hERG; format: cell-based
# Sequence of hERG (Q12809 whole entry): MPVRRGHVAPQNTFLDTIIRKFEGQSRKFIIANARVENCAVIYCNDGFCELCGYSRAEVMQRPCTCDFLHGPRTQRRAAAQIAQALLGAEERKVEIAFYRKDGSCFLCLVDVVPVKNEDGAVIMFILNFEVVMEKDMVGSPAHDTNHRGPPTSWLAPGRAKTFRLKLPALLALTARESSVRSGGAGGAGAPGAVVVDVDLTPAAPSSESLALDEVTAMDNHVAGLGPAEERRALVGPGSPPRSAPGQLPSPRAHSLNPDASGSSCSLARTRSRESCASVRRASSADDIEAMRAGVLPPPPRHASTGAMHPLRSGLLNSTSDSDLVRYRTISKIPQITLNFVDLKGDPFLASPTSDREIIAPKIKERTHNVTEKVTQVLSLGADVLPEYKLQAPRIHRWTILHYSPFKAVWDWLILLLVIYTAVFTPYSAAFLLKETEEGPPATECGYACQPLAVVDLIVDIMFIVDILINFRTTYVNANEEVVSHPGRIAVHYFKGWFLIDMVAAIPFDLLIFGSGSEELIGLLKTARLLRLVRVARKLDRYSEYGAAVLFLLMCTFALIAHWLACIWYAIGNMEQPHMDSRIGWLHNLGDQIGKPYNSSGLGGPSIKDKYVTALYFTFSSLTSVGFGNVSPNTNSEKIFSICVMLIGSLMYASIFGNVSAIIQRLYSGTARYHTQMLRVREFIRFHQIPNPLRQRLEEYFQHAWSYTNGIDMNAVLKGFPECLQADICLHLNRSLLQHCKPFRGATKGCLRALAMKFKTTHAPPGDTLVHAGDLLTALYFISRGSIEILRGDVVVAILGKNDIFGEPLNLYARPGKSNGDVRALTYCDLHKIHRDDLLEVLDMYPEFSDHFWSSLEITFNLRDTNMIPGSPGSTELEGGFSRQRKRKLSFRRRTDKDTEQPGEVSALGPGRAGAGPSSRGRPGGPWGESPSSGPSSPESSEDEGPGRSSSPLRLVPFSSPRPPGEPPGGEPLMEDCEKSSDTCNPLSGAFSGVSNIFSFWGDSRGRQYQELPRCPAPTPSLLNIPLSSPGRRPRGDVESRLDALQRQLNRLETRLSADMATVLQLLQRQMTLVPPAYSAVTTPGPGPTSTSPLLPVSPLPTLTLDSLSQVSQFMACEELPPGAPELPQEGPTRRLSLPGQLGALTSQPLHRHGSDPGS
# Description: Hs1a was isolated from the venom of the Chinese bird spider, Haplopelma schmidti. To assess the selectivity of Hs1a for Nav channel subtypes, Hs1a was tested on HEK cells stably transfected with human Nav1.1-Nav1.7 channels using automated patch clamp techniques. […] The IC50 value for hNav1.7 obtained in mammalian cells correlates with the IC50 obtained by two-electrode voltage clamp on hNav1.7 expressed in X. laevis oocytes. The selectivity of Hs1a for off-target voltage-gated calcium and potassium channels were also tested.
# [3] = 4 nmol plus 12 nmol unmodified Hs1a
Structure (SMILES),IC50 (hNav1.1) [nM],IC50 (hNav1.2) [nM],IC50 (hNav1.3) [nM],IC50 (hNav1.4) [nM],IC50 (hNav1.5) [nM],IC50 (hNav1.6) [nM],IC50 (hNav1.7) [nM],"radiant efficiency, resected sciatic nerves (mouse sciatic nerves [1]; 4 nmol i.v. alone)","radiant efficiency, brain (mouse sciatic nerves [1]; 4 nmol i.v.)","radiant efficiency, kidney (mouse sciatic nerves [1]; 4 nmol i.v.)","radiant efficiency, liver (mouse sciatic nerves [1]; 4 nmol i.v.)","radiant efficiency, spleen (mouse sciatic nerves [1]; 4 nmol i.v.)","radiant efficiency, resected sciatic nerves, co-injection (blocking) (mouse sciatic nerves [1]; [3])",signal in sciatic nerve sections (mouse sciatic nerves [2]; 4 nmol i.v. alone),"signal in sciatic nerve sections, blocked mice (mouse sciatic nerves [2]; [3])",IC50 (hERG) [nM]
CC(C)C[C@H](NC(=O)[C@H](CCCCN)NC(=O)CNC(=O)[C@H](CCCCN)NC(=O)[C@@H]1CSSC[C@@H]2NC(=O)[C@H](CCCCN)NC(=O)[C@H](CC(=O)O)NC(=O)[C@H](CC(N)=O)NC(=O)[C@H](CCCCNC(=O)CCCCC[N+]3=C(/C=C/C4=CC(=C/C=C5/N(C)c6ccc7ccccc7c6C5(C)C)/CCC4)C(C)(C)c4c3ccc3ccccc43)NC(=O)[C@@H]3CCCN3C(=O)[C@H](CC(N)=O)NC(=O)[C@@H]3CSSC[C@H](NC(=O)[C@H](C(C)C)NC(=O)[C@H](CC(C)C)NC(=O)[C@H](CC(N)=O)NC(=O)[C@H](C)NC(=O)[C@H](CSSC[C@H](NC(=O)[C@H](CC(=O)O)NC(=O)[C@H](CC(N)=O)NC(=O)CN)C(=O)N[C@@H](CC(C)C)C(=O)NCC(=O)N[C@@H](Cc4ccccc4)C(=O)N[C@@H](Cc4c[nH]c5ccccc45)C(=O)N[C@@H](CO)C(=O)N[C@@H](C)C(=O)N3)NC2=O)C(=O)N[C@@H](CO)C(=O)N[C@@H](CO)C(=O)N[C@@H](CCCCN)C(=O)N[C@@H](Cc2c[nH]cn2)C(=O)N[C@@H](CCCCN)C(=O)N[C@@H](Cc2c[nH]c3ccccc23)C(=O)N1)C(=O)O [Hs1a-FL],19.4,81.2,107,> 3000,> 3000,19.2,26.9,1.6±0.3×10^5 [p/s/cm^2/sr]/[μW/cm^2],0.2±0.1×10^7 [p/s/cm^2/sr]/[μW/cm^2],1.4±1.1×10^7 [p/s/cm^2/sr]/[μW/cm^2],3.0±2.0×10^7 [p/s/cm^2/sr]/[μW/cm^2],0.8±0.5×10^7 [p/s/cm^2/sr]/[μW/cm^2],0.09±0.03×10^5 [p/s/cm^2/sr]/[μW/cm^2],confirmed the presence of Hs1a-FL signal,No signal was detected,–
CC(C)C[C@H](NC(=O)[C@H](CCCCN)NC(=O)CNC(=O)[C@H](CCCCN)NC(=O)[C@@H]1CSSC[C@@H]2NC(=O)[C@H](CCCCN)NC(=O)[C@H](CC(=O)O)NC(=O)[C@H](CC(N)=O)NC(=O)[C@H](CCCCN)NC(=O)[C@@H]3CCCN3C(=O)[C@H](CC(N)=O)NC(=O)[C@@H]3CSSC[C@H](NC(=O)[C@H](C(C)C)NC(=O)[C@H](CC(C)C)NC(=O)[C@H](CC(N)=O)NC(=O)[C@H](C)NC(=O)[C@H](CSSC[C@H](NC(=O)[C@H](CC(=O)O)NC(=O)[C@H](CC(N)=O)NC(=O)CN)C(=O)N[C@@H](CC(C)C)C(=O)NCC(=O)N[C@@H](Cc4ccccc4)C(=O)N[C@@H](Cc4c[nH]c5ccccc45)C(=O)N[C@@H](CO)C(=O)N[C@@H](C)C(=O)N3)NC2=O)C(=O)N[C@@H](CO)C(=O)N[C@@H](CO)C(=O)N[C@@H](CCCCN)C(=O)N[C@@H](Cc2c[nH]cn2)C(=O)N[C@@H](CCCCN)C(=O)N[C@@H](Cc2c[nH]c3ccccc23)C(=O)N1)C(=O)O [Hs1a],–,–,–,–,–,–,–,–,–,–,–,–,–,–,–,> 3000
